# Experimental data reported in paper doi:10.1101/2025.10.23.684218v2, “Development of a dual chemical probe for the USP16 and HDAC6 zinc-finger ubiquitin-binding domain” (biorxiv, 2025).
# Where two headings read alike, the source gives them in different places.
# How the values were obtained:
# Test in all cases: biochemical
# Parameters in all cases: SPR, steady-state binding to immobilised biotinylated UBD proteins
# BRAP = biological target: T1, BRAP (Homo sapiens, UniProt Q7Z569)
# T1 construct: UBD, residues 304-390
# T1 sequence (Q7Z569 1-592): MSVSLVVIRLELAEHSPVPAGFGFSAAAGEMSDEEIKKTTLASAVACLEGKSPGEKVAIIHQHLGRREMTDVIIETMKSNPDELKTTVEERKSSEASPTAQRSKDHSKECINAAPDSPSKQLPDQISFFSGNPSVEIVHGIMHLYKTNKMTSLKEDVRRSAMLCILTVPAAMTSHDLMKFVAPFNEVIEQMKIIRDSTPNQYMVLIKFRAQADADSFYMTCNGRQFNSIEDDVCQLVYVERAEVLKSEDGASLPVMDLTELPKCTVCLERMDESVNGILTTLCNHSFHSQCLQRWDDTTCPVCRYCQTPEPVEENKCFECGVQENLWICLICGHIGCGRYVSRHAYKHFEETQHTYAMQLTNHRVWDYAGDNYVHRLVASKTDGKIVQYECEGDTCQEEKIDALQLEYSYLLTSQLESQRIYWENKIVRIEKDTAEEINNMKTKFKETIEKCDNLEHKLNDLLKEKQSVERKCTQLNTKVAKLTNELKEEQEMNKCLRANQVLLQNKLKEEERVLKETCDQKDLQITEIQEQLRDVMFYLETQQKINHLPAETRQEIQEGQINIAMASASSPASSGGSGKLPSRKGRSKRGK
# USP33 = biological target: T2, USP33 (Homo sapiens, UniProt Q8TEY7)
# T2 construct: UBD, residues 29-134
# T2 sequence (Q8TEY7 1-942): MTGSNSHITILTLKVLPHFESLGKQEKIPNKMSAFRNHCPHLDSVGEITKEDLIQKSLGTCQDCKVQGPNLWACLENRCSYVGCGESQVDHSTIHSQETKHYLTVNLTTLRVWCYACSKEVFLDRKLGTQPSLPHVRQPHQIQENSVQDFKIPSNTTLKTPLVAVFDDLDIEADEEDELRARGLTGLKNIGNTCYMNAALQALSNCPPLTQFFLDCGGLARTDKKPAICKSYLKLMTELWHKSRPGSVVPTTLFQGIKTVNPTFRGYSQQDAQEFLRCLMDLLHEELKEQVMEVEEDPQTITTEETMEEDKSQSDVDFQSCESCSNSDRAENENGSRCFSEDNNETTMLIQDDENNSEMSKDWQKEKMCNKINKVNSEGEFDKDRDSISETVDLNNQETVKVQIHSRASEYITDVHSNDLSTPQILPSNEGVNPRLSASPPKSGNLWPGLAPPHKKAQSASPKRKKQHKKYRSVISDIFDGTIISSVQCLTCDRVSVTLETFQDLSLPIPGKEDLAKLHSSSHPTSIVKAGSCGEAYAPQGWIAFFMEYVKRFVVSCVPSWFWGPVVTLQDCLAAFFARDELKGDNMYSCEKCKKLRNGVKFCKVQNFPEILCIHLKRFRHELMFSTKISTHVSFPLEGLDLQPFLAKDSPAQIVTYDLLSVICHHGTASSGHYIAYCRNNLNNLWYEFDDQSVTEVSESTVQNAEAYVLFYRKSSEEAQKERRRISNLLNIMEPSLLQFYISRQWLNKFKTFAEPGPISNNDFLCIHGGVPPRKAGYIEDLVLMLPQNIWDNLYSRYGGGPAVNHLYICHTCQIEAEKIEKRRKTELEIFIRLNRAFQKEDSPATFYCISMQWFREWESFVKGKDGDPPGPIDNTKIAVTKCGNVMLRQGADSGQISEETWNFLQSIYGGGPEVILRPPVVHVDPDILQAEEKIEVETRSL
# USP49 = biological target: T3, USP49 (Homo sapiens, UniProt Q70CQ1)
# T3 construct: UBD, residues 1-115
# T3 sequence (Q70CQ1 1-688): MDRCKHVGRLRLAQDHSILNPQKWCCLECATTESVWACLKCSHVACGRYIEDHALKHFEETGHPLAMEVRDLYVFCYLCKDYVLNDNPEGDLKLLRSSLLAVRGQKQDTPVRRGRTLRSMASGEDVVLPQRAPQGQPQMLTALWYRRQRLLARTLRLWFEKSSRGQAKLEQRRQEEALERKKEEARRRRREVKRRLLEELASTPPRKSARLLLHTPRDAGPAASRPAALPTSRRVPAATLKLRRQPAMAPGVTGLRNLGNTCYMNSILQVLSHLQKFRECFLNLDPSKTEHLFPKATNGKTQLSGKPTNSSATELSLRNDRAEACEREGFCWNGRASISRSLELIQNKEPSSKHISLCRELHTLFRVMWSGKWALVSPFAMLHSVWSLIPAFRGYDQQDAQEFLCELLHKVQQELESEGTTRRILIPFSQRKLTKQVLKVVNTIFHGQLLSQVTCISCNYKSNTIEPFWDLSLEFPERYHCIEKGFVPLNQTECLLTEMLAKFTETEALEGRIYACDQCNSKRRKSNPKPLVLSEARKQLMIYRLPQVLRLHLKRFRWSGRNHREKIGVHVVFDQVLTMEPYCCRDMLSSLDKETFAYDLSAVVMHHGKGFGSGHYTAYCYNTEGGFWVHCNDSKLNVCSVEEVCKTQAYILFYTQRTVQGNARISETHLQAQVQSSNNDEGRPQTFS
# [1] = read-out: Probe KD (nM) SGC-UBD1031
# [2] = read-out: Negative Control KD (nM) SGC-UBD1031N
Kd (BRAP; [1]) [nM],Kd (USP33; [1]) [nM],Kd (USP49; [1]) [nM],Kd (BRAP; [2]) [nM],Kd (USP33; [2]) [nM],Kd (USP49; [2]) [nM],Compound
> 10000,> 10000,7500 ± 870,,,,"C[C@H](NC(=O)Cn1c(CCC(=O)O)nc2c(Cl)cccc2c1=O)c1c(F)cccc1F [compound 15, (S)-3-(8-chloro-3-(2-((1-(2,6-difluorophenyl)ethyl)amino)-2-oxoethyl)-4-oxo-3,4-dihydroquinazolin-2-yl)propanoic acid]"
,,,> 10000,> 10000,6700 ± 2100,"C[C@@H](NC(=O)Cn1c(CCC(=O)O)nc2c(Cl)cccc2c1=O)c1c(F)cccc1F [compound 16, (R)-3-(8-chloro-3-(2-((1-(2,6-difluorophenyl)ethyl)amino)-2-oxoethyl)-4-oxo-3,4-dihydroquinazolin-2-yl)propanoic acid]"
